Test results as given in patent US9062078B2, “Substituted 7-azabicyles and their use as orexin receptor modulators” (priority 2013, dated 2015).
Where two headings read alike, the source gives them in different places.

Experiments:
rat orexin 1 receptor = rat orexin 1 receptor (Rattus norvegicus, UniProt P56718); assay: Rat orexin 1 receptor radioligand binding (competitive, [3H]-SB674042, HEK293 cell preparations)
human orexin 2 receptor = human orexin 2 receptor (Homo sapiens (Human), UniProt O43614); assay: Human orexin 2 receptor radioligand binding (competitive, [3H]-EMPA, HEK293 cell preparations)
human orexin 2 receptor, sequence (O43614 whole entry): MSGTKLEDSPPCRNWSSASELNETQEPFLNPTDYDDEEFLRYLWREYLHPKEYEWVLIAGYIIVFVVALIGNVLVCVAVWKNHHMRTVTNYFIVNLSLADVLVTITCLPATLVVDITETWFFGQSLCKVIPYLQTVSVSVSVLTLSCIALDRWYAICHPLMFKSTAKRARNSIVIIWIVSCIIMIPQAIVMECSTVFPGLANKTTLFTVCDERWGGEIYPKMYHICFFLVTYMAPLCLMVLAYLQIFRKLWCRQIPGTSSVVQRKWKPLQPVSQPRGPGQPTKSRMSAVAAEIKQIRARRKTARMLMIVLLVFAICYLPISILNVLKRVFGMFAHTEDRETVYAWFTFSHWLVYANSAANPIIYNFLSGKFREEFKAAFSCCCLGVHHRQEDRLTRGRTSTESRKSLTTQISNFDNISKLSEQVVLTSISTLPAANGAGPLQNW

[1] = rat orexin 1 receptor, [3H]-SB674042 competition binding, read-out: rOX1 Ki (nm)
[2] = human orexin 2 receptor, [3H]-EMPA competition binding, read-out: hOX2 Ki (nm)

SMILES	Ki (rat orexin 1 receptor; [1]) [nM]	Ki (human orexin 2 receptor; hOX2 Ki (nm)) [nM]	Ki (rat orexin 1 receptor; rOX1 Ki (nm)) [nM]	Ki (human orexin 2 receptor; [2]) [nM]
O=C(c1cccc(F)c1-c1ncccn1)N1C2CCC1C(COc1ccccn1)C2 (racemic) [Example 52, (±)-(3-fluoro-2-(pyrimidin-2-yl)phenyl)(2-((pyridin-2-yloxy)methyl)-7-azabicyclo[2.2.1]heptan-7-yl)methanone]	350	2300	–	–
Cc1ccc(-n2nccn2)c(C(=O)N2C3CCC2C(COc2cccnn2)C3)n1 (racemic) [Example 53, (±)-(6-methyl-3-(2H-1,2,3-triazol-2-yl)pyridin-2-yl)(2-((pyridazin-3-yloxy)methyl)-7-azabicyclo[2.2.1]heptan-7-yl)methanone]	2200	> 10000	–	–
Cc1ccc(-n2nccn2)c(C(=O)N2C3CCC2C(COc2cccnc2C)C3)n1 (racemic) [Example 54, (±)-(6-methyl-3-(2H-1,2,3-triazol-2-yl)pyridin-2-yl)(2-(((2-methylpyridin-3-yl)oxy)methyl)-7-azabicyclo[2.2.1]heptan-7-yl)methanone]	–	–	3500	2200
Cc1ccc(-n2nccn2)c(C(=O)N2C3CCC2C(COc2ccnn2C)C3)n1 (racemic) [Example 56, (±)-(2-(((1-methyl-1H-pyrazol-5-yl)oxy)methyl)-7-azabicyclo[2.2.1]heptan-7-yl)(6-methyl-3-(2H-1,2,3-triazol-2-yl)pyridin-2-yl)methanone]	> 10000	> 10000	–	–
Cc1ccc(-n2nccn2)c(C(=O)N2C3CCC2C(COc2ccncc2)C3)n1 (racemic) [Example 57, (±)-(6-methyl-3-(2H-1,2,3-triazol-2-yl)pyridin-2-yl)(2-((pyridin-4-yloxy)methyl)-7-azabicyclo[2.2.1]heptan-7-yl)methanone]	1000	–	–	7300
Cc1ccc(-n2nccn2)c(C(=O)N2C3CCC2C(COc2ncccn2)C3)n1 (racemic) [Example 59, (±)-(6-methyl-3-(2H-1,2,3-triazol-2-yl)pyridin-2-yl)(2-((pyrimidin-2-yloxy)methyl)-7-azabicyclo[2.2.1]heptan-7-yl)methanone]	2600	4900	–	–
Cc1ccc(-n2nccn2)c(C(=O)N2C3CCC2C(COc2cnccn2)C3)n1 (racemic) [Example 60, (±)-(6-methyl-3-(2H-1,2,3-triazol-2-yl)pyridin-2-yl)(2-((pyrazin-2-yloxy)methyl)-7-azabicyclo[2.2.1]heptan-7-yl)methanone]	7800	> 10000	–	–
Cc1ccc(-n2nccn2)c(C(=O)N2C3CCC2C(COc2ccncn2)C3)n1 (racemic) [Example 61, (±)-(6-methyl-3-(2H-1,2,3-triazol-2-yl)pyridin-2-yl)(2-((pyrimidin-4-yloxy)methyl)-7-azabicyclo[2.2.1]heptan-7-yl)methanone]	–	> 10000	2800	–
Cc1ccc(-c2ncccc2C)c(C(=O)N2C3CCC2C(COc2ccc(F)cn2)C3)n1 (racemic) [Example 65, (±)-(3,6′-dimethyl-[2,3′-bipyridin]-2′-yl)(2-(((5-fluoropyridin-2-yl)oxy)methyl)-7-azabicyclo[2.2.1]heptan-7-yl)methanone]	–	–	1440	6200
Cc1cnc(C(=O)N2C3CCC2C(COc2ccccn2)C3)c(-n2nccn2)c1 (racemic) [Example 71, (±)-(5-methyl-3-(2H-1,2,3-triazol-2-yl)pyridin-2-yl)(2-((pyridin-2-yloxy)methyl)-7-azabicyclo[2.2.1]heptan-7-yl)methanone]	1200	–	–	3700
Cc1ccc(N(C)C)c(C(=O)N2C3CCC2C(COc2ccccn2)C3)n1 (racemic) [Example 73, (±)-(3-(dimethylamino)-6-methylpyridin-2-yl)(2-((pyridin-2-yloxy)methyl)-7-azabicyclo[2.2.1]heptan-7-yl)methanone]	278	–	–	7900
O=C(c1nc2ccccc2cc1-n1nccn1)N1C2CCC1C(COc1ccccn1)C2 (racemic) [Example 74, (±)-(3-(2H-1,2,3-triazol-2-yl)quinolin-2-yl)(2-((pyridin-2-yloxy)methyl)-7-azabicyclo[2.2.1]heptan-7-yl)methanone]	–	–	359	1700
Cc1ccc2ncc(C)n2c1C(=O)N1C2CCC1C(COc1ccccn1)C2 (racemic) [Example 76, (±)-(3,6-dimethylimidazo[1,2-a]pyridin-5-yl)(2-((pyridin-2-yloxy)methyl)-7-azabicyclo[2.2.1]heptan-7-yl)methanone]	> 10000	–	–	> 10000
Cn1cc(C(=O)N2C3CCC2C(COc2ccccn2)C3)c(-c2ccccc2)n1 (racemic) [Example 78, (±)-(1-methyl-3-phenyl-1H-pyrazol-4-yl)(2-((pyridin-2-yloxy)methyl)-7-azabicyclo[2.2.1]heptan-7-yl)methanone]	418	–	–	3100
Cc1ccn2c(C)cnc2c1C(=O)N1C2CCC1C(COc1ccccn1)C2 (racemic) [Example 79, (±)-((3,7-dimethylimidazo[1,2-a]pyridin-8-yl)(2-((pyridin-2-yloxy)methyl)-7-azabicyclo[2.2.1]heptan-7-yl)methanone]	2400	–	–	8500
Cc1ccn2ccnc2c1C(=O)N1C2CCC1C(COc1ccccn1)C2 (racemic) [Example 80, (±)-(7-methylimidazo[1,2-a]pyridin-8-yl)(2-((pyridin-2-yloxy)methyl)-7-azabicyclo[2.2.1]heptan-7-yl)methanone]	1100	–	–	> 10000
Cn1ncc(-c2ccccc2)c1C(=O)N1C2CCC1C(COc1ccccn1)C2 (racemic) [Example 81, (±)-(1-methyl-4-phenyl-1H-pyrazol-5-yl)(2-((pyridin-2-yloxy)methyl)-7-azabicyclo[2.2.1]heptan-7-yl)methanone]	916	–	–	2900
Cn1ncc(C(=O)N2C3CCC2C(COc2ccccn2)C3)c1-c1ccccc1 (racemic) [Example 84, (±)-(1-methyl-5-phenyl-1H-pyrazol-4-yl)(−2-((pyridin-2-yloxy)methyl)-7-azabicyclo[2.2.1]heptan-7-yl)methanone]	2600	–	–	9700
Cc1ccc(N2CCN(C)CC2)c(C(=O)N2C3CCC2C(COc2ccccn2)C3)n1 (racemic) [Example 85, (±)-(6-methyl-3-(4-methylpiperazin-1-yl)pyridin-2-yl)(2-((pyridin-2-yloxy)methyl)-7-azabicyclo[2.2.1]heptan-7-yl)methanone]	> 10000	–	–	> 10000
Cc1ccc(N2CCNCC2)c(C(=O)N2C3CCC2C(COc2ccccn2)C3)n1 (racemic) [Example 86, (±)-(6-methyl-3-(piperazin-1-yl)pyridin-2-yl)(2-((pyridin-2-yloxy)methyl)-7-azabicyclo[2.2.1]heptan-7-yl)methanone]	> 10000	> 10000	–	–
Cc1ccc(N2CCOCC2)c(C(=O)N2[C@@H]3CC[C@H]2[C@H](COc2ccccn2)C3)n1 (racemic) [Example 87, (±)-(6-methyl-3-morpholinopyridin-2-yl)((1S,2R,4R)-2-((pyridin-2-yloxy)methyl)-7-azabicyclo[2.2.1]heptan-7-yl)methanone]	4200	> 10000	–	–
Cc1ccc(-c2ncccc2C)c(C(=O)N2C3CCC2C(COc2ccccn2)C3)n1 (racemic) [Example 90, (±)-(3,6′-dimethyl-[2,3′-bipyridin]-2′-yl)(2-((pyridin-2-yloxy)methyl)-7-azabicyclo[2.2.1]heptan-7-yl)methanone]	3000	> 10000	–	–
O=C(c1ncccc1-n1nccn1)N1C2CCC1C(COc1ccccn1)C2 (racemic) [Example 91, (±)-(3-(2H-1,2,3-triazol-2-yl)pyridin-2-yl)(2-((pyridin-2-yloxy)methyl)-7-azabicyclo[2.2.1]heptan-7-yl)methanone]	–	–	624	3300
Cc1ccc(-n2cccn2)c(C(=O)N2C3CCC2C(COc2ccccn2)C3)n1 (racemic) [Example 95, (±)-(6-methyl-3-(1H-pyrazol-1-yl)pyridin-2-yl)(2-((pyridin-2-yloxy)methyl)-7-azabicyclo[2.2.1]heptan-7-yl)methanone]	247	–	–	3700
Cc1ccc(-c2ncccc2C)c(C(=O)N2C3CCC2C(COc2ncc(F)cn2)C3)n1 (racemic) [Example 98, (±)-(3,6′-dimethyl-[2,3′-bipyridin]-2′-yl)(2-(((5-fluoropyrimidin-2-yl)oxy)methyl)-7-azabicyclo[2.2.1]heptan-7-yl)methanone]	> 10000	–	–	> 10000
Cc1cc(-c2ccc(C)nc2C(=O)N2C3CCC2C(COc2ncc(F)cn2)C3)on1 (racemic) [Example 99, (±)-(2-(((5-fluoropyrimidin-2-yl)oxy)methyl)-7-azabicyclo[2.2.1]heptan-7-yl)(6-methyl-3-(3-methylisoxazol-5-yl)pyridin-2-yl)methanone]	–	–	1500	2900
Cc1ccc(-c2ncco2)c(C(=O)N2C3CCC2C(COc2ncc(F)cn2)C3)n1 (racemic) [Example 100, (±)-(2-(((5-fluoropyrimidin-2-yl)oxy)methyl)-7-azabicyclo[2.2.1]heptan-7-yl)(6-methyl-3-(oxazol-2-yl)pyridin-2-yl)methanone]	950	–	–	1800
Cc1ccc(N2CCCC2)c(C(=O)N2C3CCC2C(COc2ncc(F)cn2)C3)n1 (racemic) [Example 101, (±)-(2-(((5-fluoropyrimidin-2-yl)oxy)methyl)-7-azabicyclo[2.2.1]heptan-7-yl)(6-methyl-3-(pyrrolidin-1-yl)pyridin-2-yl)methanone]	650	–	–	1200
Cc1cnn(-c2ccc(C)nc2C(=O)N2C3CCC2C(COc2ncc(F)cn2)C3)c1 (racemic) [Example 103, (±)-(2-(((5-fluoropyrimidin-2-yl)oxy)methyl)-7-azabicyclo[2.2.1]heptan-7-yl)(6-methyl-3-(4-methyl-1H-pyrazol-1-yl)pyridin-2-yl)methanone]	1700	3600	–	–
